What is called Ki is the equilibrium dissociation constant of an inhibitor or competing ligand from its target. The IC50 is the concentration needed to halve the response being measured.

Experimental findings from publication PMC8069941, “Potential Anticancer Lipoxygenase Inhibitors from the Red Sea-Derived Brown Algae Sargassum cinereum: An In-Silico-Supported In-Vitro Study” (Antibiotics, 2021) are described below.

For one assay, the target named is T1, 15-LOX (Homo sapiens, UniProt O15296).
T1 construct: purchased Cayman Chemical 10011263
T1 sequence (O15296 1-676): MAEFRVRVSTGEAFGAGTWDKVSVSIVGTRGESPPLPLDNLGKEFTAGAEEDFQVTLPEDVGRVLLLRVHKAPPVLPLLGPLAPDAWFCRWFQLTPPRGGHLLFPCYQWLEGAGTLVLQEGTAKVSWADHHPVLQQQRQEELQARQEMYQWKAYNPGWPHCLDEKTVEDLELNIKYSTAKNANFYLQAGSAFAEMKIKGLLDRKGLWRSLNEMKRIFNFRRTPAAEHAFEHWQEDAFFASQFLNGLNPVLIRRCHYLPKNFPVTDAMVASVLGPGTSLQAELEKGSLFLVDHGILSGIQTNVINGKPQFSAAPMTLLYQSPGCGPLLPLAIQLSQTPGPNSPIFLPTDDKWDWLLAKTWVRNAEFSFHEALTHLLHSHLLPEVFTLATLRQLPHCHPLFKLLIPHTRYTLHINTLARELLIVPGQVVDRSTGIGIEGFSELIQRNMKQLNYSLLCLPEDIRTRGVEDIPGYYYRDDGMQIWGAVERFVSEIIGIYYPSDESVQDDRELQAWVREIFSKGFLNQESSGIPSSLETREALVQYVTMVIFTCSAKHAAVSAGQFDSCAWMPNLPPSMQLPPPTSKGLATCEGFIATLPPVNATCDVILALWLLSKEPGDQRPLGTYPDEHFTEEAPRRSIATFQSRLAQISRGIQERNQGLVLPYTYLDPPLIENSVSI
Put plainly: 15-LOX inhibition assay (human recombinant enzyme kit). In kind it is biochemical. The protocol: Stock solutions were freshly prepared before use, and buffer solution (0.1 M Tris-HCl, PH, 7.4) was used. 10 µL of each compound were prepared, dissolved in the least amount of DMSO and diluted with the stock solution to be in concentrations of (0.001, 0.1, 1, 5, 10 µM) in a final volume of 210 mL. […] Substrate concentration was ranged from 5 to 50 µM. Substrate concentrations (5, 10, 20, 30, 40, 50 µM) were monitored in triplicate for each sample [37]. Doxorubicin was used as a positive control.

For the next assay, the target named is T2, 5-LOX (Homo sapiens, UniProt P09917).
T2 construct: purchased Cayman Chemical 60,402
T2 sequence (P09917 1-674): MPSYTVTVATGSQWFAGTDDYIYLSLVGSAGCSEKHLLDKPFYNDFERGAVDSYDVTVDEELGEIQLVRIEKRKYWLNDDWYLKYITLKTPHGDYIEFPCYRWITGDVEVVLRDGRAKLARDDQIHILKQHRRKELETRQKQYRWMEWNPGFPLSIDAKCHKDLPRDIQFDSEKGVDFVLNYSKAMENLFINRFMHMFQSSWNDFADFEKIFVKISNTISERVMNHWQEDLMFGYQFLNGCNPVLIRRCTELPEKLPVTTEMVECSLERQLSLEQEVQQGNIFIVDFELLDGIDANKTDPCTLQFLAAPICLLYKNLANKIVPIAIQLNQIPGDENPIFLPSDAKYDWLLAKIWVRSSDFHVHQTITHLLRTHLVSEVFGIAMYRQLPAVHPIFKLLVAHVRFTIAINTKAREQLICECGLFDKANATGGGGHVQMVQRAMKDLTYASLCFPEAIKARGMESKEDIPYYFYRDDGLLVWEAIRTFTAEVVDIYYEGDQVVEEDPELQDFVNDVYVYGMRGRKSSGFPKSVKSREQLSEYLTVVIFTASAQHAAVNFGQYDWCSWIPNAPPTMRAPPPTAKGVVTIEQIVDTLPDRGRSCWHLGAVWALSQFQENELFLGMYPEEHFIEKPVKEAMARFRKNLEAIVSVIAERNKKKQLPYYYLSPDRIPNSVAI
Nature of the assay: 5-LOX inhibition assay (human recombinant enzyme kit). The class given is biochemical. The protocol:
The ability of the isolated compounds 12, 13, and 19 to inhibit 5-LOX and 15-LOX enzymes (IC50 and Ki values, µM) was determined using human recombinant enzyme assay kits (catalog no 60,402 and 10011263, Cayman Chemical, Ann Arbor, MI, USA) following manufacturer’s specifications. Stock solutions were freshly prepared before use, and buffer solution (0.1 M Tris-HCl, PH, 7.4) was used. 10 µL of each compound were prepared, dissolved in the least amount of DMSO and diluted with the stock solution to be in concentrations of (0.001, 0.1, 1, 5, 10 µM) in a final volume of […]. The kinetic parameters for both 5-LOX and 15-LOX were determined by measuring the increase in absorbance at 238 nm in an Agilent 8453 diode array spectrophotometer (Agilent Technologies, Santa Clara, CA, USA). Substrate concentration was ranged from 5 to 50 µM. Substrate concentrations (5, 10, 20, 30, 40, 50 µM) were monitored in triplicate for each sample [37]. Doxorubicin was used as a positive control.

[1] abbreviates: in vitro, human recombinant enzyme.

Take `CCCCC/C=C\C/C=C\C/C=C\C/C=C\CCCCOCC(O)CO[C@H]1O[C@H](CO)[C@@H](O)[C@H](O)[C@H]1O` (stereo partly drawn) [compound 19, 1-O-arachidonyl-3-O-(α-D-glucopyranosyl) glycerol]: the Ki at 15-LOX (in vitro inhibition constant) was determined as 4.2 ± 0.1 µM; at 5-LOX (in vitro inhibition constant), 1.4 ± 0.2 µM. Also, the IC50 at 15-LOX (setting [1]) was 6.7 ± 0.3 µM; at 5-LOX (setting [1]), 2.1 ± 0.4 µM.
